Several values for one entry are separate records, joined by “and”; a condition that tells them apart may be missing. Identical values can stand only once. Like-named read-outs stand apart in the source and are kept apart here.
Assays:
[1] = test system: HIV transcripts (TAR, LLTR, Pol, PolyA, TatRev); test: Latency reversal assay: cell-associated HIV transcripts (RT-ddPCR) 24 hours after anti-CD3/CD28 activation of PBMCs from ART-suppressed PWH; format: cell-based; set-up: Elongated (LLTR) HIV transcripts, median relative to activated DMSO, initial screening / Midtranscribed (Pol) HIV transcripts, median relative to activated DMSO, initial screening / Multiply spliced (TatRev) HIV transcripts, median relative to activated DMSO, initial screening: concentration or dose not given beside the values; conditions: 24 hours
Method: We selected 26 small molecules targeting pathways implicated in HIV transcription or the blocks to HIV transcription underlying latency (Supplemental Table 1). […] Initial screening of all drugs was performed in freshly isolated PBMCs from 2 ART-suppressed individuals (Figure 1 and Supplemental Figure 2). PBMCs were cultured in the presence of individual drugs in DMSO or DMSO alone as a control, subsequently activated (anti-CD3/CD28), and harvested after 24 hours. […] The progression through different blocks to HIV transcription was quantified by measuring the levels of initiated (TAR), 5′ elongated (LLTR), midtranscribed/unspliced (Pol), completed (PolyA), and multiply spliced (TatRev) HIV transcripts. The levels of those HIV transcripts were normalized to 1 μg of total cellular RNA (to normalize for the effect of the drug on global cellular transcription) and expressed as a percentage of the activated DMSO control.
(§1) Figure 1 Screening of candidate LPAs by measuring the change in multiply spliced HIV transcripts after activation. Each drug was tested in PBMCs from 2 ART-suppressed study participants (denoted in the legend by varying symbol shapes). PBMCs were aliquoted into wells at 6 × 10^6 cells/well. After activation, the cells were cultured with antiretrovirals in the presence of individual drugs in DMSO or DMSO alone as control. All conditions were tested in the presence of CD3/28 T cell–activating beads, except for the unactivated DMSO condition. (A) After 24 hours, the viability was measured by trypan blue staining and then normalized to the levels of the activated DMSO (% of activated DMSO). Bars indicate medians. (B) Total cellular RNA was extracted, and the levels of multiply spliced HIV transcripts (TatRev) were measured by RT-ddPCR, normalized to 1 μg of total cellular RNA, and expressed as a percentage of the activated DMSO control (% of activated DMSO). RT-dd, reverse transcription digital droplet; vRNA, viral RNA; HAT, histone acetyltransferase.
The ability of our candidate LPAs to inhibit HIV transcriptional progression after activation was examined in PBMCs from a minimum of 7 PWH per drug tested (Figure 3). PBMCs were cultured in the presence of individual drugs in DMSO or in DMSO alone as a control, subsequently activated (anti-CD3/CD28), and harvested after 24 hours.
Each drug was tested in PBMCs from 7 ART-suppressed study participants. The PBMCs were aliquoted into wells at 6 × 10^6 cells/well. After activation, the cells were cultured with antiretrovirals in the presence of individual drugs in DMSO or DMSO alone as control. All conditions were tested in the presence of CD3/28 T cell–activating beads, except for the unactivated DMSO condition. After 24 hours, total RNA was extracted, and the progression through different stages of HIV transcription was quantified by measuring the levels of initiated (TAR), 5′ elongated (LLTR), midtranscribed/unspliced (Pol), completed (PolyA), and multiply spliced (TatRev) HIV transcripts. (A) The levels of all HIV transcripts were normalized to 1 μg of total cellular RNA and expressed as a percentage of the activated DMSO control (% of activated DMSO). Medians are shown as well as the individual values per study participant in different colors. (B–D) The effect of each drug on HIV transcriptional progression after activation was analyzed by the ratio of one HIV transcript to another. Ratios are independent of HIV infection frequency or normalization to cell numbers. Shown are the proportion of (B) all HIV transcripts that were elongated (LLTR/TAR), (C) elongated HIV transcripts that were completed spliced (PolyA/LLTR), and (D) completed transcripts that were multiply spliced (TatRev/PolyA).

[2] = test system: PBMCs; format: cell-based, human; conditions: 6 days after αCD3/28 activation, each row one participant
Method: Next, we evaluated the ability of the candidate LPAs to sustain the inhibitory effects during a prolonged ex vivo culture. To this end, PBMCs were cultured in the presence of individual drugs in DMSO or in DMSO alone as control, activated (anti-CD3/CD28), and harvested after 6 days. […] However, we decided to test the drug on day 6 because extra cells were available from some study participants.
(§2) For quantification of cell-associated HIV transcripts, PBMCs were harvested either after 24 hours or after 6 days. The cell viabilities were measured by trypan blue staining; then the cells were pelleted by centrifuging at 300g for 6 minutes and stored at –80°C. For quantification of virion-associated HIV RNA, cell culture supernatant was collected from 6 × 10^6 PBMCs that were treated and activated for 6 days as described above. Residual cells and cellular debris were subsequently removed from the supernatant by differential centrifugation (300g for 6 minutes, then 20,000g for 10 minutes), and the supernatant was stored at –80°C.
A) After six days, the viability was measured by trypan blue staining and then normalized to the levels of the activated DMSO (% of activated DMSO). Bars indicate medians and different colors indicate individual study participants. B-F) Each drug was tested in PBMCs from at least six ART-suppressed study participants (except for KRIBB11, n=5) and the PBMCs were aliquoted into wells at 6x10^6 cells/well. After activation, the cells were cultured with antiretrovirals in the presence of individual drugs in DMSO or DMSO alone as control. After six days, total RNA was extracted and the progression through different stages of HIV transcription was (1 picture or pasted object on this page, not shown here)

[3] = test system: PBMCs; test: Cell viability by trypan blue staining after 24 hours; format: cell-based, human; conditions: for Viability (dose-response): 1 participant per drug, in % (unit assumed)
Method: as §1, §2

[4] = initial screening, 2 participants, Supplemental Figure 2

C=CCNC1=C2C[C@@H](C)C[C@H](OC)[C@H](O)[C@@H](C)/C=C(\C)[C@H](OC(N)=O)[C@@H](OC)/C=C\C=C(/C)C(=O)NC(=CC1=O)C2=O [tanespimycin]
HIV transcriptional elongation, ratio LLTR/TAR ([1]; compared with activated DMSO, Figure 3B): inhibited | Elongated (LLTR) HIV transcripts, median relative to activated DMSO, initial screening [1, 4]: 49% | Midtranscribed (Pol) HIV transcripts, median relative to activated DMSO, initial screening [1, 4]: 31% | Cell viability (DMSO αCD3/28 = 100) ([2]; 5μM): 119.92 and 93.07 and 93.65 and 100.43 and 91.95 and 100.9 and 116.6 | Viability (Fig 1A) ([3]; study participant 150b): 104.931 % of activated DMSO | Viability (Fig 1A) ([3]; study participant 2147b): 92.78 % of activated DMSO

COc1ccc(-c2cc(=O)c3c(O)cc(O)c(-c4cc(-c5cc(=O)c6c(O)cc(O)cc6o5)ccc4OC)c3o2)cc1 [isoginkgetin]
Cell viability (DMSO αCD3/28 = 100) ([2]; 25μM): 120.3 and 106.36 and 93.99 and 112.22 and 91.65 and 74.9 and 87.5 and 124.6 | Cell viability (in words) ([3]; initial screening concentrations, Figure 1A): impact on cell viability | Viability (Fig 1A) ([3]; study participant 150a): 88.97 % of activated DMSO | Viability (Fig 1A) ([3]; study participant 152): 84.74 % of activated DMSO

O=c1c(O)c(-c2ccc(O)c(O)c2)oc2cc(O)cc(O)c12 [quercetin]
Cell viability (DMSO αCD3/28 = 100) ([2]; 5μM): 74.1 and 98.05 and 112.6 and 106 and 105.8 | Viability (dose-response) ([3]; dose 5 µM): 87.619 | Viability (dose-response) ([3]; dose 10 µM): 77.686 | Viability (Fig 1A) ([3]; study participant 150a): 100.02 % of activated DMSO | Viability (Fig 1A) ([3]; study participant 152): 90.16 % of activated DMSO
